From US9260444B2, “Crystalline form of 2-((1′-n-hexyloxy) ethyl)-2-divinyl-pyropheophorbide-a and method for preparing thereof” (Zhejiang Hisun Pharmaceutical Co., Ltd., priority 2012, dated 2016)

Key:
[1] = Long term stability experiment of the HPPH crystal; format: physicochemical; conditions: for Total impurity (%) / Content (based on dry weight, %): Temp 25° C. ± 2° C., Humidity 60% ± 5%; for Content (based on dry weight, %): standard content 98.0% to 102.0%
Procedure: According to the Guidelines to the stability studies of active pharmaceutical ingredient and pharmaceutical preparation (Chinese Pharmacopoeia, 2010 Edition, the Second Part, Appendix XIX C) (Appendix 199 to 200), selecting the HPPH crystal sample prepared in Embodiment 1 (Lot No. S111101), mimicking pack to selling, placing it in an incubator at the temperature of 25° C.±2° C., and the relative humidity of 60%±5%, after 6 months, taking the sample out, and examining it with the key examination items for stability, then comparing the examination results with the results obtained in the 0 month.

[2] = Accelerated stability experiment of the HPPH crystal; format: physicochemical; conditions: for Total impurity (%) / Content (based on dry weight, %): Temp 40° C. ± 2° C., Humidity 75% ± 5%; for Content (based on dry weight, %): standard content 98.0% to 102.0%
Procedure: According to the Guidelines to the stability studies of active pharmaceutical ingredient and pharmaceutical preparation (Chinese Pharmacopoeia, 2010 Edition, the Second Part, Appendix XIX C) (Appendix 199 to 200), selecting the HPPH crystal sample prepared in Embodiment 1 (Lot No. S111101), mimicking pack to selling, placing in an incubator at the temperature of 40° C.±2° C., and the relative humidity of 75%±5%, after 6 months, taking the sample out, and examining it with the key examination items for stability, then comparing the examination results with the results obtained in the 0 month.

[3] = tested on: esophageal cancer; conditions: cited from earlier work

| Substance | Change of key stability examination items versus 0 month ([1]; 25° C. ± 2° C., relative humidity 60% ± 5%, after 6 months) | Total impurity (%) ([1]; 0 month) | Content (based on dry weight, %) ([1]; 0 month) [%] | Total impurity (%) ([1]; 6 months) | Content (based on dry weight, %) ([1]; 6 months) [%] | Content in the 6 month sample versus 0 month ([2]; 40° C. ± 2° C., relative humidity 75% ± 5%, after 6 months) | Total impurity (%) ([2]; 0 month) | Content (based on dry weight, %) ([2]; 0 month) [%] | Total impurity (%) ([2]; 6 months) | Content (based on dry weight, %) ([2]; 6 months) [%] | Photodynamic therapeutic efficacy ([3]; 5 esophageal cancer patients, very low dose) | Photosensitive side effect of skin ([3]; clinical observation, esophageal cancer patients) |
| --- | --- | --- | --- | --- | --- | --- | --- | --- | --- | --- | --- | --- |
| 2-((1′-n-hexyloxy)ethyl)-2-divinyl-pyropheophorbide-a [HPPH crystal] | no examination item has shown significant change | 0.25 | 99.9 | 0.26 | 99.8 | slightly lower, yet still within the acceptable range | 0.25 | 99.9 | 0.27 | 98.9 |  |  |
| 2-((1′-n-hexyloxy)ethyl)-2-divinyl-pyropheophorbide-a [HPPH] |  |  |  |  |  |  |  |  |  |  | very good photodynamic therapeutic efficacy | no photosensitive side effect of skin has been observed |
